One assay has as its target T1, human SGLT1 (Homo sapiens, UniProt P13866).
T1 construct: expressed in transfected cells
T1 sequence (P13866 1-664): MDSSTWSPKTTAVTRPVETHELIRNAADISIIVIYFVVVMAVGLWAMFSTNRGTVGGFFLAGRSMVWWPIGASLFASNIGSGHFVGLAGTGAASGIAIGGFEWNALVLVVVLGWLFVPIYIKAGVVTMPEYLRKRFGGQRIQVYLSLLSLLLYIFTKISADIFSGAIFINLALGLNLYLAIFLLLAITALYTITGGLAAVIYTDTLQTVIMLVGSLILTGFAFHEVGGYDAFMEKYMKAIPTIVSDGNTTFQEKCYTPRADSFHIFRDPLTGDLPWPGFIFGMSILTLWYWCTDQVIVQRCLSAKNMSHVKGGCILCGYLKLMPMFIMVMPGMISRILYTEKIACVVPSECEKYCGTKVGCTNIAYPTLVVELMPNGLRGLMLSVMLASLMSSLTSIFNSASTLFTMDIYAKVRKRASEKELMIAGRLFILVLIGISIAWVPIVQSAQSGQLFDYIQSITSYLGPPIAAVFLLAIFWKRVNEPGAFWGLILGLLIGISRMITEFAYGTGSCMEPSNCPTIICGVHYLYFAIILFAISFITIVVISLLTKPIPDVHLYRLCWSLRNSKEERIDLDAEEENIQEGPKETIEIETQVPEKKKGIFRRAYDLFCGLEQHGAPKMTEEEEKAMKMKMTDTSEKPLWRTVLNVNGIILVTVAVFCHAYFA
Kind of assay: SGLT1 in vitro assay: Na-dependent 14C-AMG uptake in CHO-K1 cells stably expressing human SGLT1. The format is cell-based. To be noted: for inhibition at 0.3 µM: read-out: SGLT1 % Inh @ 0.3 μM. The protocol: (§1) Biological Example 1: SGLT1 and SGLT2 In Vitro Assays
(§2) The ability of the compounds of formula (I) of the present invention to treat an SGLT-mediated condition was determined using the following procedures:
(§3) SGLT1 and SGLT2 were cloned in form of cDNA from human small intestine (Genbank M24847), and from human kidney (Genbank M95549), respectively. Subsequently, each full cDNA was subcloned into pcDNA with each construct's integrity verified through follow-on sequencing. To generate CHO-K1 cells that stably express human SGLT1 or human SGLT2, CHO-K1 cells were transfected using DMRIE-C reagent (Life Technologies, Gaithersburg, Md.). Transfected cells were then selected in the presence of 500 μg/ml of the Geneticin (G418 Cellgro Catalog No. 30234-CI)
(§4) Individual clones were then characterized using the following cell-based assay for sodium-dependent glucose transport:
(§5) Inhibition of SGLT1 and SGLT2 activity was assessed in CHO K1 cells stably expressing either human SGLT1 or SGLT2, using the SGLT specific glucose analog methyl-glucopyranoside (Sigma Catalog No. M-9376). Cells were plated (45,000 cells/well) in white wall 96-well plates (COSTAR, Cat #3903) for 24 hours in growth medium, then a final concentration of 10 mM Na-Butyrate (ALDRICH Cat #30341-0) was added. The cells were incubated for 24 hours. On the day of the assay, cells were rinsed and treated with test compounds (at concentrations of 0.001 μM to 10 μM) in assay buffer (50 mM HEPES, 20 mM Tris base, 5 mM KCl, 1 mM MgCl2, 1 mM CaCl2 and 137 mM NaCl, pH 7.4) for 10 minutes. Cells were then incubated with ^14C-a-methyl-d-glucopyranoside (AMG, Amersham Catalog No. CFB 76), using 0.07 μCi per well in 500 µM AMG final concentration. The cells were incubated for 2 hours at 37° C. with 5% CO2 and washed two times with ice-cold Phosphate Buffer Solution (CELLGRO Catalog No. 21030-CV). The cells were then solubilized by adding 60 μl of MICROSCINT™ 20 and the Na-dependent ^14C-AMG uptake was quantified by measuring radioactivity. Plates were counted in a TopCount (Packard, Meriden, Conn.)
(§6) Representative compounds of the present invention were tested according to the procedures as described in Biological Example 1 and 2 above, with results as listed in Table 5, below. Results are reported as the %-inhibition or IC50 value. Variability for the functional assay was typically within 20%.

The target in the next assay is T2, human SGLT2 (Homo sapiens, UniProt P31639).
T2 construct: expressed in transfected cells
T2 sequence (P31639 1-672): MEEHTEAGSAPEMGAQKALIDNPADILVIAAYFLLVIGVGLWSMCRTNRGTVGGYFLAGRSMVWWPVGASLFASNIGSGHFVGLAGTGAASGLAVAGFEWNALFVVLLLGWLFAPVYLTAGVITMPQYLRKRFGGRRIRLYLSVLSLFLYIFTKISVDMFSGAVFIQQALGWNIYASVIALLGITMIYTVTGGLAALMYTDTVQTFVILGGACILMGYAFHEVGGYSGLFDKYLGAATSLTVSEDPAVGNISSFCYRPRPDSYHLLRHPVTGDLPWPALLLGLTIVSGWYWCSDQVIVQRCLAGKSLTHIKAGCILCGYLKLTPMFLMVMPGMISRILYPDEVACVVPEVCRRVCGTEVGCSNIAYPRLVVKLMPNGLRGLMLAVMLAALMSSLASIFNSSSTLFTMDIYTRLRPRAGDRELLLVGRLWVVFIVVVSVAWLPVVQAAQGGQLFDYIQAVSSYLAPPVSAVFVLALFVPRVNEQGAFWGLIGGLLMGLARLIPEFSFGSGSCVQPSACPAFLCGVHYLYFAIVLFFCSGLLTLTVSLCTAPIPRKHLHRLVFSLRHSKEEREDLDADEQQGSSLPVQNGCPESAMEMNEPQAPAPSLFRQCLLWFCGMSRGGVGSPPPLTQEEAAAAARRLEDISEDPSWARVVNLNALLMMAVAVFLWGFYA
Kind of assay: SGLT2 in vitro assay: Na-dependent 14C-AMG uptake in CHO-K1 cells stably expressing human SGLT2. The format is cell-based. As to conditions: for inhibition at 0.3 µM: read-out: SGLT2 % Inh @ 0.3 μM. The protocol: as §1, §2, §3, §4, §5, §6

The mark [1] stands for this setting: 0.3 μM, CHO-K1 cells expressing human SGLT1.
Setting [2] is: CHO-K1 cells expressing human SGLT1, 14C-AMG uptake.
The mark [3] stands for this setting: 0.3 μM, CHO-K1 cells expressing human SGLT2.
Setting [4] is: CHO-K1 cells expressing human SGLT2, 14C-AMG uptake.

Consider 11 compounds from patent US20210238170A1, “5,5-Difluoro- and 5-Fluoro-5-Methyl-C-Glycoside Derivatives Useful As Dual SGLT1 / SGLT2 Modulators” (Janssen Pharmaceutica NV, priority 2018, published 2021).

pIC50: −log10 of the molar value.

Regarding `CCc1ccc(Cc2cc(C3OC(CO)C(F)(F)C(O)C3O)cc3c2OCC3CO)cc1` (mixture of isomers) [Compound 61], the “SGLT1 % Inh @ 0.3 μM” value at human SGLT1 (@ 0.3 μM, CHO-K1 cells stably expressing human SGLT1, 14C-AMG uptake) is on record as 32.2%. In addition, at human SGLT2 (@ 0.3 μM, CHO-K1 cells stably expressing human SGLT2, 14C-AMG uptake), the “SGLT2 % Inh @ 0.3 μM” value is on record as 58.0%.
On to `Cc1cc(O)c([C@@H]2O[C@H](CO)[C@@](C)(F)[C@H](O)[C@H]2O)cc1Cc1ccc(OCF)cc1` (stereo in doubt) [Compound 23, (2S,3R,4R,5S,6R)-5-fluoro-2-(5-(4-(fluoromethoxy)benzyl)-2-hydroxy-4-methylphenyl)-6-(hydroxymethyl)-5-methyl-tetrahydro-2H-pyran-3,4-diol], for which the inhibition at 0.3 µM at human SGLT1 (setting [1]) stood at 54%; on human SGLT2 (setting [3]), 88%. Further, the values for the pIC50 against human SGLT1 (setting [2]) and against human SGLT2 (setting [4]) were 6.50 and 8.55, respectively.
On to `Cc1cc(O)c([C@@H]2O[C@H](CO)[C@@](C)(F)[C@H](O)[C@H]2O)cc1Cc1cc2ccccc2s1` [Compound 1], for which, on human SGLT1 (setting [1]), the inhibition at 0.3 µM came out at 57.6%. In addition, the negative logarithm of the IC50 (pIC50) was 6.70 at human SGLT1 (setting [2]) and 7.71 against human SGLT2 (setting [4]).
For the compound `COc1cc(O)c([C@@H]2O[C@H](CO)[C@@](C)(F)[C@H](O)[C@H]2O)cc1Cc1ccc2c(c1)CCCO2` [Compound 2, (2S,3R,4R,5S,6R)-2-[5-(chroman-6-ylmethyl)-2-hydroxy-4-methoxy-phenyl]-5-fluoro-6-(hydroxymethyl)-5-methyl-tetrahydropyran-3,4-diol], the inhibition at 0.3 µM came out at 31.1% on human SGLT1 (setting [1]) and 67.4% on human SGLT2 (setting [3]).
Consider `COc1cc(OC)c(C2OC(CO)C(C)(F)C(O)C2O)cc1Cc1ccc2c(c1)CCCO2` (centres unmarked) [Compound 4], for which the “SGLT1 % Inh @ 0.3 μM” value at human SGLT1 (setting [1]) is recorded as 0.9%. Moreover, the “SGLT2 % Inh @ 0.3 μM” value at human SGLT2 (setting [3]) is 73.4%.
For the compound `COc1cc(OC)c([C@@H]2O[C@H](CO)[C@@](C)(F)[C@H](O)[C@H]2O)cc1Cc1ccc2c(c1)OCCO2` [Compound 9, (2S,3R,4R,5S,6R)-2-[5-(2,3-dihydro-1,4-benzodioxin-6-ylmethyl)-2,4-dimethoxy-phenyl]-5-fluoro-6-(hydroxymethyl)-5-methyl-tetrahydropyran-3,4-diol], the results for the inhibition at 0.3 µM on human SGLT1 (setting [1]) and on human SGLT2 (setting [3]) were 25.3% and 58.7%, respectively.
With `C[C@]1(F)[C@H](O)[C@@H](O)[C@H](c2cc(Cc3cc4ccccc4s3)c(Cl)cc2O)O[C@@H]1CO` [Compound 10, (2S,3R,4R,5S,6R)-2-[5-(benzothiophen-2-ylmethyl)-4-chloro-2-hydroxy-phenyl]-5-fluoro-6-(hydroxymethyl)-5-methyl-tetrahydropyran-3,4-diol], the inhibition at 0.3 µM at human SGLT1 (setting [1]) was determined as 41.7%; on human SGLT2 (setting [3]), 87.8%. The negative logarithm of the IC50 (pIC50) against human SGLT1 (setting [2]) is 6.54; on human SGLT2 (setting [4]), 7.99.
For `CCc1cc(O)c([C@@H]2O[C@H](CO)[C@@](C)(F)[C@H](O)[C@H]2O)cc1Cc1ccc(OC)cc1` [Compound 16, (2S,3R,4R,5S,6R)-2-[4-ethyl-2-hydroxy-5-[(4-methoxyphenyl)methyl]phenyl]-5-fluoro-6-(hydroxymethyl)-5-methyl-tetrahydropyran-3,4-diol], in that order: 53%, 85.5%, 6.82 and 8.70.
For the compound `C[C@]1(F)[C@H](O)[C@@H](O)[C@H](c2cc3c(c(Cc4ccc5c(c4)OCCO5)c2)OCC3)O[C@@H]1CO` [Compound 19], the “SGLT1 % Inh @ 0.3 μM” value at human SGLT1 (setting [1]) is on record as 9.3%. At human SGLT2 (setting [3]), the “SGLT2 % Inh @ 0.3 μM” value is 73.5%.
In the case of `COc1cc(C)c(Cc2ccc(OCF)cc2)cc1[C@@H]1O[C@H](CO)[C@@](C)(F)[C@H](O)[C@H]1O` [Compound 24], at human SGLT1 (setting [1]), the “SGLT1 % Inh @ 0.3 μM” value stood at 29.6%. The “SGLT2 % Inh @ 0.3 μM” value on human SGLT2 (setting [3]) is 77.1%.
As for `CCc1cc(O)c([C@@H]2O[C@H](CO)C(F)(F)[C@H](O)[C@H]2O)cc1Cc1cc2ccccc2s1` [Compound 26, (2S,3R,4R,6R)-2-[5-(benzothiophen-2-ylmethyl)-4-ethyl-2-hydroxy-phenyl]-5,5-difluoro-6-(hydroxymethyl)tetrahydropyran-3,4-diol], the pIC50 was 7.36 on human SGLT1 (CHO-K1 cells stably expressing human SGLT1, 14C-AMG uptake, compounds of formula (I) where R0 is fluoro) and 7.48 against human SGLT2 (CHO-K1 cells stably expressing human SGLT2, 14C-AMG uptake, compounds of formula (I) where R0 is fluoro).

For orientation: pIC50 means the negative decadic logarithm of the IC50, by convention in mol/L. High values mean a low IC50, low ones a high IC50.
